From patent US20050010368A1, “Method for the prediction of binding targets and the design of ligands” (priority 1997, published 2005)
Read-outs that look alike come from different tables or passages of the source.

Key:
[1] = target: T1, V82A mutant HIV-1 protease (Human immunodeficiency virus type 1 group M subtype B, UniProt P04585, V570A); conditions: V82A mutant vs wild type; Baldwin et al., 1995; cited from earlier work
T1 construct: the complex of A77003 with the V82A mutant HIV-1 protease

HIV-1 protease = HIV-1 protease (Human immunodeficiency virus type 1 group M subtype B, UniProt P04585); test: Structure-based thermodynamic calculation of inhibitor binding to HIV-1 protease
Experimental: In all cases presented here the Gibbs energy of binding, ΔG, was calculated from the published crystallographic structures using procedures previously described (D'Aquino et al., 1996; Gomez et al., 1995(a); Gomez et al., 1995(b); Hilser et al., 1996(b); Luque et al., 1996). These calculations require the structures of the complex as well as the structures of the unligated protein and unligated inhibitor. In this approach, the generic portion of the Gibbs energy, ΔGgen, is calculated from a separate computation of its enthalpy and entropy components. […]
The most significant structural/solvation contributions to the total free energy of binding are contained in the term […] which is calculated by estimating separately its enthalpy and entropy components. […]
The changes in accessible surface areas were calculated by implementing the Lee and Richards algorithm (Lee et al., 1971). […]
In binding or folding, the bulk of the enthalpy change originates from the formation of internal interactions (van der Waals, hydrogen bonds, etc.) and the parallel desolvation of the interacting groups. […] For example, it has been shown that for binding processes in which protons are either released or absorbed the measured enthalpy depends on the ionization enthalpy of the buffer (Gomez et al., 1995(b)). […]

endothiapepsin [2] = target: T2, endothiapepsin (Cryphonectria parasitica, UniProt P11838); conditions: reference cited, cited from earlier work
T2 sequence (P11838 90-419): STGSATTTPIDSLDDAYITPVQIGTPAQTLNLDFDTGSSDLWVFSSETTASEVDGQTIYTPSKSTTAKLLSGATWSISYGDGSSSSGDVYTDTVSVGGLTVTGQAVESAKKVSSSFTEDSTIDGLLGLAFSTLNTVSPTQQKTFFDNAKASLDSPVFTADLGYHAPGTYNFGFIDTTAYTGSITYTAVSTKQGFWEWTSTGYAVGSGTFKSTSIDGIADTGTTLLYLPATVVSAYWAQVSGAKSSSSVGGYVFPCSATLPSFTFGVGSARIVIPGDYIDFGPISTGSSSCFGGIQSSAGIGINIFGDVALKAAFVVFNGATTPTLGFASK

endothiapepsin [3] = target: T2, endothiapepsin; type: biochemical
Description: The ΔΔG values are relative to the wild type. […] To test the structure-based thermodynamic prediction, the A5F mutant of pepstatin A was synthesized and the overall inhibition constant determined experimentally.

endothiapepsin [4] = target: T2, endothiapepsin
Description: The second mutation considered in this study involved the addition of an amino acid at the carboxy terminus of the peptide.

endothiapepsin [5] = target: T2, endothiapepsin; conditions: relative to wild type pepstatin A
Description: In all cases, the coordinate sets for the complexes between the protein and the mutated peptides are generated by using the coordinates of the wild type complex as a template. Replacement mutants are created by replacing the original side chain with the desired mutation, leaving the backbone in the original conformation. For mutations that involve the addition of an extra amino acid at either end of the peptide chain, the backbone torsional angles are also included in the minimization.
The inhibitor contains two residues of the unusual amino acid statine (Sta: 4(S)-amino-3(S)-hydroxy-6methylheptanoic acid). […] Two different mutations of pepstatin A were studied. […] Twelve possible mutations at this position were considered (Cys, Gly, His, Ile, Leu, Met, Phe, Ser, Thr, Trp, Tyr, Val). For each of these mutations, the most probable conformation was identified. In the second case, the addition of an amino acid at the carboxy terminus of pepstatin A was considered. In this case, a simultaneous optimization of side chain and backbone conformations was performed in order to identify the most probable conformation.

## CC(C)[C@H](NC(=O)N(C)Cc1ccccn1)C(=O)N[C@@H](Cc1ccccc1)[C@H](O)[C@H](O)[C@H](Cc1ccccc1)NC(=O)[C@@H](NC(=O)N(C)Cc1ccccn1)C(C)C [A77003]
[1]
  reduction in binding affinity measured experimentally: 4 fold

## CC(C)CN(C[C@@H](O)[C@H](Cc1ccccc1)NC(=O)O[C@H]1CCOC1)S(=O)(=O)c1ccc(N)cc1 [VX478]
HIV-1 protease
  ΔΔG: -0.563 kcal/mol

## Iva-Val-Val-Sta-Ala-Sta [Pepstatin A]
Endothiapepsin [2]; measured under the same conditions (16° C.)
  ΔH of binding: -4.1 kcal/mol
Endothiapepsin [2]; measured under the same conditions
  ΔCp of binding: −310 cal/K•mol
Endothiapepsin [3]; experimental binding Gibbs energy at 25° C.
  ΔG(25)exp: -12.7 kcal/mol

## Iva-Val-Val-Sta-Ala-Sta-Glu
Endothiapepsin [4]; 16° C., calorimetric
  enthalpy change (ΔH) of binding: -4.6 ± 0.1 kcal/mol
Endothiapepsin [4]; from temperature dependence of the binding enthalpy change
  heat capacity change (ΔCp): −260±20 cal/K•mol
Endothiapepsin [3]
  binding affinity relative to wild type pepstatin A: lower affinity
  ΔG(25)exp: -11.3 kcal/mol

## Iva-Val-Val-Sta-Phe-Sta
Endothiapepsin [3]
  binding affinity relative to wild type pepstatin A: higher affinity
  deviation of ΔG from its predicted value: 0.2 kcal/mol
  ΔG(25)exp: -13.3 kcal/mol
Endothiapepsin [5]
  Gibbs energy of binding more favorable than the wild type: about 1 kcal/mol
